In US4316894A, “Antibiotic SF-1130-x3 3 substance and production and use thereof” (Meiji Seika Kaisha, Ltd., priority 1979, dated 1982):

Experiments:
[1] = Suppression of elevation of blood sugar level in mice given starch or sucrose orally; type: in vivo, ICR-strain male mice; details: test drug 10 mg/kg oral (dose of the x1 + x2 mixture not stated), 30 minutes after administration, ICR male mice, six per group
Protocol: The test was carried out by the following procedure: Test animal was ICR-strain male mice (six mice per group, weighing 25 g in average) which had been abstained from water for 20 hours. 1 g/kg of starch or 2.5 g/kg of sucrose was orally given to the mice. At the same time, 10 mg/kg of the compound of this invention or 10 mg/kg of deoxynojirimycin as a comparative drug was orally administered to these mice. 30 minutes after the administration, the glucose level in blood was measured.

α-glucosidase = experiment: Determination of the activity of inhibiting α-glucosidase; type: biochemical, pig; details: measured in the same way as above; read-out: ID50 values (comparison substances, measured in the same way as above)
From the text: The compound of this invention is useful for highly inhibiting the enzymatic reaction of glucosidase and particularly for inhibiting the enzymatic reaction of α-glucosidase as well as the enzymatic reaction of saccharase. Such the inhibitory activity of the compound of this invention may be estimated according to the following procedure with the α-glucosidase prepared from ileum mucosa of pig as disclosed in the literature "Acta Chem. Scand." vol. 12, page 1997 (1958).
(1) Determination of the activity of inhibiting α-glucosidase. There are prepared the following four solutions:
Solution A: A solution of the enzyme (α-glucosidase) having appropriately been diluted to a desired enzyme concentration with 0.1 M maleate buffered solution (pH 6.0)
Solution B: 0.1 M maleate buffered solution (pH 6.0)
Solution C: An aqueous solution of 0.014 M p-nitrophenyl-α-D-glycoside (as the substrate) in water
Solution D: An aqueous solution of 0.1 M sodium carbonate in water […]
In the above assay, degree (%) of inhibition for the inhibitor sample to the α-glucosidase is calculated according to the following equation: […]

OC[C@H]1NC[C@H](O)[C@@H](O)[C@@H]1O [Deoxynojirimycin]
Blood sugar level, groups receiving starch ([1]; starch 1 g/kg oral): 101 ± 22.9 mg/dL
Blood sugar level, groups receiving sucrose ([1]; sucrose 2.5 g/kg oral): 93 ± 15.4 mg/dL

OC[C@H]1NC(O)[C@H](O)[C@@H](O)[C@@H]1O (stereo partly drawn) [nojirimycin]
IC50 (α-glucosidase): 360 µM
